Experimental findings from US12319655B2, “RAF kinase inhibitors and methods of use thereof” (Deciphera Pharmaceuticals, LLC, priority 2021, dated 2025) are described below.

The target in experiment [1] is A-Raf kinase (SEQ. ID No: 1) (Homo sapiens (Human), UniProt P10398, Y301D/Y302D). The experiment can be described thus: Biochemical Assay for A-Raf (2). The note with it: Table J, biochemical assay (2); read-out: ARAF (2). As for the experimental part: Biochemical Assay for A-Raf (2)
(§1) Activity of A-Raf kinase (SEQ. ID No: 1) was determined spectroscopically using a coupled pyruvate kinase/lactate dehydrogenase assay that continuously monitors the ATP hydrolysis-dependent oxidation of NADH (e.g., Schindler et al., Science, 2000, 289, 1938-1942). Assays were conducted in 384-well plates (25 μL final volume) using 20 nM A-Raf (Eurofins), 1.5 units pyruvate kinase, 2.1 units lactate dehydrogenase, 1 mM phosphoenol pyruvate, 0.7 mM NADH, 100 nM MEK (SignalChem), and 1 mM ATP in assay buffer (100 mM Tris, pH 7.5, 15 mM MgCl2, 0.5 mM DTT, 0.1% octyl-glucoside, 0.002% (w/v) BSA, and 0.002% Triton X-100). Inhibition of A-Raf was measured by adding serial diluted test compound (final assay concentration of 1% DMSO). A decrease in absorption at 340 nm was monitored hourly for 4 h at 30° C. on a multi-mode microplate reader (BioTek). The reaction rate was calculated using the 3 to 4 h time frame. The reaction rate at each concentration of compound was converted to percent inhibition using controls (i.e., reaction with no test compound and reaction with a known inhibitor) and IC50 values were calculated by fitting a four-parameter sigmoidal curve to the data using Prism (GraphPad software).

The target of experiment [2] is C-Raf kinase (SEQ. ID NO: 3) (Homo sapiens (Human), UniProt P04049, Y340D/Y341D). Kind of experiment: Biochemical Assay for C-Raf (2). The settings on record: Table J, biochemical assay (2); read-out: CRAF (2). The method, then:
Biochemical Assay for C-Raf (2)
Activity of C-Raf kinase (SEQ. ID NO: 3) was determined spectroscopically using a coupled pyruvate kinase/lactate dehydrogenase assay that continuously monitors the ATP hydrolysis-dependent oxidation of NADH (e.g., Schindler et al., Science, 2000, 289, 1938-1942). Assays were conducted in 384-well plates (25 μL final volume) using 3.84 nM C-Raf (Eurofins), 1.5 units pyruvate kinase, 2.1 units lactate dehydrogenase, 1 mM phosphoenol pyruvate, 0.7 mM NADH, 50 nM MEK (SignalChem), and 1 mM ATP in assay buffer (100 mM Tris, pH 7.5, 15 mM MgCl2, 0.5 mM DTT, 0.1% octyl-glucoside, 0.002% (w/v) BSA, and 0.002% Triton X-100). Inhibition of C-Raf was measured by adding serial diluted test compound (final assay concentration of 1% DMSO). A decrease in absorption at 340 nm was monitored hourly for 4 h at 30° C. on a multi-mode microplate reader (BioTek). The reaction rate was calculated using the 2 to 3 h time frame. The reaction rate at each concentration of compound was converted to percent inhibition using controls (i.e., reaction with no test compound and reaction with a known inhibitor) and IC50 values were calculated by fitting a four-parameter sigmoidal curve to the data using Prism (GraphPad software).

The test system of experiment [3] is A375 cells. Kind of experiment: A375 Cell Proliferation Assay (2). The experiment is classed as cell-based. The note with it: Homo sapiens, A-375. The method, then: A375 Cell Proliferation Assay (2)
A375 cells (catalog (#CRL-1619) are obtained from the American Type Culture Collect (ATTC, Manassas, VA). Briefly, cells were grown in DMEM High Glucose supplemented with 10% characterized fetal bovine serum (Invitrogen, Carlsbad, CA) and 1% Penicillin/Streptomycin/L-Glutamine at 37° C., 5% CO2, and 95% humidity. Cells are expanded until reaching 70-95% confluency at which point they are sub-cultured or harvested for assay use. Using the Beckman Coulter Echo 650, a serial dilution of test compound is dispensed into a 384-well black clear bottom plate in triplicate. Six hundred twenty-five cells are added per well in 50 μL complete growth medium in the 384-well plate. Plates are incubated for 67-72 h at 37° C., 5% CO2, and 95% humidity. At the end of the incubation, 10 μL of a 440 μM solution of resazurin (Sigma, St. Louis, MO) in PBS is added to each well of the plate and plates are incubated for an additional 3-6 h at 37° C., 5% CO2, and 95% humidity. Plates are read on a Synergy2 or equivalent reader (Biotek, Winooski VT) using an excitation of 540 nm and an emission of 600 nm. Data is analyzed using Prism software (GraphPad, San Diego, CA) to calculate IC50 values.

Experiment [4] concerns the target B-Raf (V600E) (SEQ. ID NO: 4) kinase (Homo sapiens (Human), UniProt P15056, V600E). The experiment can be described thus: Biochemical Assay for B-Raf (V600E) (2). The note with it: Table J, BRAF V600E, biochemical assay (2); read-out: BRAF VE (2). As for the experimental part: Biochemical Assay for B-Raf (V600E) (2)
as §1, with “of B-Raf (V600E)” for “of A-Raf kinase”, “ID NO: 4) kinase” for “ID No: 1)”, “using 0.5” for “using 20”, “nM B-Raf (deCode),” for “nM A-Raf (Eurofins),”, “of B-Raf (V600E)” for “of A-Raf”

Molecules are shown by their SMILES.

Chain of C-Raf kinase (SEQ. ID NO: 3) (P04049 307-648 Y340D/Y341D): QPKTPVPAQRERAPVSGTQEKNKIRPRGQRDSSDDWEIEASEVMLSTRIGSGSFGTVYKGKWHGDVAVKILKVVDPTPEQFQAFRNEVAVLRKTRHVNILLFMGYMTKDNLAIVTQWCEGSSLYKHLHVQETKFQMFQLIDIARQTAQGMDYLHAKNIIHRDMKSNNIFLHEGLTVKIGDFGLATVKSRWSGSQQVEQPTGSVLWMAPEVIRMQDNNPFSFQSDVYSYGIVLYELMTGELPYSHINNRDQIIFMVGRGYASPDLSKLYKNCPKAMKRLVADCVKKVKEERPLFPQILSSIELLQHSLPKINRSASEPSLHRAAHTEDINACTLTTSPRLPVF
Chain of A-Raf kinase (SEQ. ID No: 1) (P10398 other isoform, or with tags, fused parts or gaps Y301D (already in the parent)/Y302D (already in the parent)): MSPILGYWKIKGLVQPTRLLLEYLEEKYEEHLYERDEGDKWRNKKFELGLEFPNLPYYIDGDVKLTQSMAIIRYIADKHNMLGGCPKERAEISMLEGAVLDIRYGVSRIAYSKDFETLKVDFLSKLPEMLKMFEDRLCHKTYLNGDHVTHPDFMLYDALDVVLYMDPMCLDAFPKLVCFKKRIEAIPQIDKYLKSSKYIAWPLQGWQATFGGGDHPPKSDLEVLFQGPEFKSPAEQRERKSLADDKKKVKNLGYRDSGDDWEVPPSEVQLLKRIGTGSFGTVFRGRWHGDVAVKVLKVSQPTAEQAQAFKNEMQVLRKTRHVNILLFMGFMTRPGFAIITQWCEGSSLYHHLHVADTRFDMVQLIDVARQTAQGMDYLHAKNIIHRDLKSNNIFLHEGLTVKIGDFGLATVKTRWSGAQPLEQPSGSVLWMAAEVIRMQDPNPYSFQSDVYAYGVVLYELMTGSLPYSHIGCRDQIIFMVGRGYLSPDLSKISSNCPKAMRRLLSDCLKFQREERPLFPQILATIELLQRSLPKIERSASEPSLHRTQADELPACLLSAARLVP
Chain of B-Raf (V600E) (SEQ. ID NO: 4) kinase (P15056 416-766 V600E): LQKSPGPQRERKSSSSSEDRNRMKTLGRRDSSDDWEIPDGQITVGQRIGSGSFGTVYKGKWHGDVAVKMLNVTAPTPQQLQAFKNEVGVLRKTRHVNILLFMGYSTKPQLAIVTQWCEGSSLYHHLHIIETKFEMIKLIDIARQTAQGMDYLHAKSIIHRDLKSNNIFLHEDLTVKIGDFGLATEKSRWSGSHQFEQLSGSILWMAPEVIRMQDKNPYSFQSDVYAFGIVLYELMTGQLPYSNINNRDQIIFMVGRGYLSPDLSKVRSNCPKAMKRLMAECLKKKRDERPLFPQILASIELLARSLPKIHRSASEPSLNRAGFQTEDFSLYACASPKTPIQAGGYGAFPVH

Take `Cc1ncc(NC(=O)c2ccnc(C(C)(C)F)c2)cc1-c1ccnc(-c2ccnc(NC(=O)C3CC3)c2)c1` [Example 454]: the IC50 is 500 to 1000 nM in experiment [1], no more than 100 nM in experiment [2], no more than 100 nM in experiment [3] and no more than 100 nM in experiment [4].

Turning to `Cc1ccc(NC(=O)c2ccnc(C(C)(C)F)c2)cc1-c1ccnc(-c2ccnc(NC(=O)C3CC3)c2)c1` [Example 455], the IC50 in experiment [1] is 100 to 500 nM; in experiment [2], no more than 100 nM; in experiment [3], no more than 100 nM; in experiment [4] it was no more than 100 nM.

With `Cc1ccc(NC(=O)c2ccnc(C(C)(C)C#N)c2)cc1-c1ccnc(-c2ccnc(NC(=O)C3CC3)c2)c1` [Example 456], the IC50 is 100 to 500 nM in experiment [1], no more than 100 nM in experiment [2], no more than 100 nM in experiment [3] and no more than 100 nM in experiment [4].

As to `Cc1ccc(NC(=O)c2ccnc(C3(C#N)CC3)c2)cc1-c1ccnc(-c2ccnc(NC(=O)C3CC3)c2)c1` [Example 457], the IC50 in experiment [1] was 100 to 500 nM; in experiment [2], no more than 100 nM; in experiment [3], no more than 100 nM; in experiment [4], no more than 100 nM.

For the molecule `Cc1ccc(NC(=O)c2ccnc(C3CC3)c2)cc1-c1ccnc(-c2ccnc(NC(=O)C3CC3)c2)c1` [Example 458], the IC50 in experiment [1] is 100 to 500 nM; in experiment [2] it was no more than 100 nM; in experiment [3], 100 to 500 nM; in experiment [4], no more than 100 nM.

`Cc1ccc(NC(=O)c2ccnc(C(C)(F)F)c2)cc1-c1ccnc(-c2ccnc(NC(=O)C3CC3)c2)c1` [Example 459]: the IC50 in experiment [1] is 100 to 500 nM; in experiment [2], no more than 100 nM; in experiment [3], no more than 100 nM; in experiment [4], no more than 100 nM.

As to `CNC(=O)c1cc(-c2cc(-c3cc(NC(=O)c4ccnc(C5CC5)c4)ccc3C)ccn2)ccn1` [Example 460], the IC50 in experiment [1] is 500 to 1000 nM; in experiment [2] it was no more than 100 nM; in experiment [3], 100 to 500 nM; in experiment [4] it was no more than 100 nM.

For the molecule `Cc1ncc(NC(=O)c2ccnc(C3(C#N)CC3)c2)cc1-c1ccnc(-c2ccnc(NC(=O)C3CC3)c2)c1` [Example 461], the IC50 was 100 to 500 nM in experiment [1], no more than 100 nM in experiment [2], no more than 100 nM in experiment [3] and no more than 100 nM in experiment [4].

With `CNC(=O)c1cc(-c2cc(-c3cc(NC(=O)c4ccnc(C5CC5)c4)cnc3C)ccn2)ccn1` [Example 462], the IC50 was 1000 to 10000 nM in experiment [1], no more than 100 nM in experiment [2], 1000 to 10000 nM in experiment [3] and 100 to 500 nM in experiment [4].

Turning to `CNC(=O)c1cc(-c2cc(-c3cc(NC(=O)c4ccnc(C(C)(F)F)c4)cnc3C)ccn2)ccn1` [Example 463], the IC50 was 1000 to 10000 nM in experiment [1], no more than 100 nM in experiment [2], 500 to 1000 nM in experiment [3] and no more than 100 nM in experiment [4].

As to `CNC(=O)c1cc(-c2cc(-c3cc(NC(=O)c4ccnc(C5(C#N)CC5)c4)cnc3C)ccn2)ccn1` [Example 464], the IC50 in experiment [1] was 100 to 500 nM; in experiment [2] it was no more than 100 nM; in experiment [3] it was 100 to 500 nM; in experiment [4] it was no more than 100 nM.

In the case of `CNC(=O)c1cc(-c2cc(-c3cc(NC(=O)c4ccnc(C(C)C)c4)cnc3C)ccn2)ccn1` [Example 465], the IC50 in experiment [1] is 1000 to 10000 nM; in experiment [2], no more than 100 nM; in experiment [3], 500 to 1000 nM; in experiment [4], no more than 100 nM.

On to `Cc1ncc(NC(=O)c2ccnc(C(C)(F)F)c2)cc1-c1ccnc(-c2ccnc(NC(=O)C3CC3)c2)c1` [Example 466], for which the IC50 in experiment [1] is 500 to 1000 nM; in experiment [2], no more than 100 nM; in experiment [3], 100 to 500 nM; in experiment [4] it was no more than 100 nM.

`Cc1ccc(NC(=O)c2ccnc(C(C)C)c2)cc1-c1ccnc(-c2ccnc(NC(=O)C3CC3)c2)c1` [Example 467]: the IC50 in experiment [1] was 100 to 500 nM; in experiment [2], no more than 100 nM; in experiment [3] it was no more than 100 nM; in experiment [4], no more than 100 nM.

As to `Cc1ncc(NC(=O)c2ccnc(C(C)C)c2)cc1-c1ccnc(-c2ccnc(NC(=O)C3CC3)c2)c1` [Example 468], the IC50 in experiment [1] is 100 to 500 nM; in experiment [2] it was no more than 100 nM; in experiment [3] it was 100 to 500 nM; in experiment [4], no more than 100 nM.

Regarding `CNC(=O)c1cc(-c2cc(-c3cc(NC(=O)c4ccnc(C(C)(C)F)c4)ccc3C)c(F)cn2)ccn1` [Example 469], the IC50 in experiment [1] is 1000 to 10000 nM; in experiment [2] it was no more than 100 nM; in experiment [3] it was 100 to 500 nM; in experiment [4] it was no more than 100 nM.

As for `CNC(=O)c1cc(-c2cc(-c3cc(NC(=O)c4ccnc(C(C)(C)F)c4)ccc3C)cc(C)n2)ccn1` [Example 470], the IC50 was 1000 to 10000 nM in experiment [1], no more than 100 nM in experiment [2], 100 to 500 nM in experiment [3] and no more than 100 nM in experiment [4].

`CNC(=O)c1cc(-c2cc(-c3cc(NC(=O)c4ccnc(C(C)(C)F)c4)ccc3C(F)(F)F)ccn2)ccn1` [Example 471]: the IC50 was 100 to 500 nM in experiment [1], 1000 to 10000 nM in experiment [2], 1000 to 10000 nM in experiment [3] and 1000 to 10000 nM in experiment [4].

As to `CNC(=O)c1cc(-c2cc(-c3cc(NC(=O)c4ccnc(C(C)(C)F)c4)ccc3C)c(C)cn2)ccn1` [Example 472], the IC50 is 1000 to 10000 nM in experiment [1], 500 to 1000 nM in experiment [2], 100 to 500 nM in experiment [3] and no more than 100 nM in experiment [4].

Turning to `CNC(=O)c1cc(-c2cc(-c3cc(NC(=O)c4ccnc(C(C)(C)F)c4)ccc3C)cnn2)ccn1` [Example 473], the IC50 in experiment [1] is 1000 to 10000 nM; in experiment [2], no more than 100 nM; in experiment [3], no more than 100 nM; in experiment [4], no more than 100 nM.

Regarding `CNC(=O)c1cc(-c2cc(-c3cc(NC(=O)c4ccnc(C(C)(C)F)c4)ccc3C)ncn2)ccn1` [Example 474], the IC50 in experiment [1] was 500 to 1000 nM; in experiment [2] it was no more than 100 nM; in experiment [3], no more than 100 nM; in experiment [4] it was no more than 100 nM.

Turning to `CNC(=O)c1cc(-c2cc(-c3cc(F)cc(NC(=O)c4ccnc(C(C)(C)F)c4)c3F)ccn2)ccn1` [Example 475], the IC50 in experiment [1], in experiment [2], in experiment [3] and in experiment [4] was 1000 to 10000 nM in each case.
